The record followed here is ChEMBL document CHEMBL2010790, “Growth inhibition and mechanism of action of p-dodecylaminophenol against refractory human pancreatic cancer and cholangiocarcinoma” (Bioorg Med Chem, 2012).

The structures appear in SMILES notation. The source made the active and inactive calls. The calls are words filed in the database; no cut-off is given here.

For data set [1], the system named is MIA PaCa-2. The experiment in a line: Growth inhibition of human MIAPaCa2 cells at 10 uM after 72 hrs by MTT assay relative to control. The format is functional. The conditions noted are these: for inhibition of growth at 10 µM: MIA PaCa-2, 72 h, read-out: GI.
Data set [2] is described as follows: Growth inhibition of human HuCCT1 cells at 4 uM after 72 hrs by MTT assay relative to control. The class given is functional. The note with it: HuCCT-1, 72 h, read-out: GI.
Data set [3] relates to HuCCT-1. The experiment in a line: (§1) Cytotoxicity against human HuCCT1 cells after 72 hrs by MTT assay. The class given is functional, cell-based.
For data set [4], the system named is MIA PaCa-2. Put plainly: Inhibition of Akt phosphorylation in human MIAPaCa2 cells assessed as effect on […] at 10 uM after 48 hrs by immunoblotting. The format is cell-based.
A short description of data set [5]: Downregulation of K-ras in human HuCCT1 cells at 2 uM after 72 hrs by agarose gel electrophoresis. The class given is functional, cell-based. The note with it: HuCCT-1.
Data set [6] is described as follows: Growth inhibition of human HuCCT1 cells at 1 uM after 72 hrs by MTT assay relative to control. The format is functional. The note with it: HuCCT-1, 72 h, read-out: GI.
Data set [7] concerns MIA PaCa-2. Put plainly: Cytotoxicity against human MIAPaCa2 cells after 72 hrs by MTT assay. The format is functional, cell-based. The conditions noted are these: MIA PaCa-2, 72 h.
Data set [8] deals with MIA PaCa-2. The experiment in a line: Cellular uptake in human MIAPaCa2 cells at 10 uM up to 30 mins by HPLC analysis. The format is ADME, cell-based. The conditions noted are these: mia paca-2, 0.5 h.
Data set [9] in a line: Downregulation of H-ras in human HuCCT1 cells at 2 uM after 72 hrs by agarose gel electrophoresis. The class given is functional, cell-based. The note with it: HuCCT-1.
In data set [10] the test system is MIA PaCa-2. Put plainly: Downregulation of K-ras in human MIAPaCa2 cells at 7 uM after 72 hrs by agarose gel electrophoresis. The format is functional, cell-based.
Data set [11] is described as follows: Downregulation of N-ras in human HuCCT1 cells at 2 uM after 72 hrs by agarose gel electrophoresis. The format is functional, cell-based. The conditions noted are these: HuCCT-1.
Data set [12] is described as follows: Cellular uptake in human HuCCT1 cells at 10 uM up to 30 mins by HPLC analysis. The format is ADME, cell-based. The note with it: hucct-1, 0.5 h.
Data set [13] in a line: (§2) Growth inhibition of human HuCCT1 cells at 10 uM after 72 hrs by MTT assay relative to control. The format is functional. The note with it: HuCCT-1, 72 h, read-out: GI.
In data set [14] the test system is MIA PaCa-2. The experiment in a line: Growth inhibition of human MIAPaCa2 cells at 4 uM after 72 hrs by MTT assay relative to control. The format is functional. The note with it: MIA PaCa-2, 72 h, read-out: GI.
Data set [15] concerns Nucleic Acid. Put plainly: Ratio of drug level in human MIAPaCa2 cells to human HuCCT1 cells at 30 mins. The conditions noted are these: mia paca-2, 0.5 h. The class given is ADME, cell-based.
The subject of data set [16] is MIA PaCa-2. Put plainly: Growth inhibition of human MIAPaCa2 cells at 1 uM after 72 hrs by MTT assay. The format is functional. The note with it: MIA PaCa-2, 72 h, read-out: GI.
Data set [17] concerns HuCCT1. The experiment in a line: Inhibition of ERK phosphorylation in human HuCCT1 cells assessed as reduction in phospho-ERK levels at 2 uM after 48 hrs by immunoblotting. The class given is cell-based.
For data set [18], the system named is HuCCT-1. The experiment in a line: Induction of apoptosis in human HuCCT1 cells after 72 hrs. The format is functional, cell-based.
For data set [19], the system named is MIA PaCa-2. Put plainly: Induction of apoptosis in human MIAPaCa2 cells after 72 hrs. The format is functional, cell-based.
Data set [20] has as its system HuCCT1. The experiment in a line: Inhibition of Akt phosphorylation in human HuCCT1 cells assessed as reduction in phospho-Akt levels at 2 uM after 48 hrs by immunoblotting. The format is cell-based.
The nature of data set [21]: as §1. The conditions noted are these: HuCCT-1, 72 h. The class given is functional, cell-based.
Data set [22] concerns MIA PaCa-2. Put plainly: Inhibition of ERK phosphorylation in human MIAPaCa2 cells assessed as reduction in phospho-ERK levels at 10 uM after 48 hrs by immunoblotting. The class given is cell-based.
Data set [23] in a line: Cellular uptake in human HuCCT1 cells at 10 uM measured after 30 mins up to 60 mins. The format is ADME, cell-based. The note with it: hucct-1, 10 µM.
Data set [24] concerns MIA PaCa-2. Put plainly: Downregulation of K-ras in human MIAPaCa2 cells at 10 uM after 72 hrs by agarose gel electrophoresis. The class given is functional, cell-based.
Data set [25] in a line: Downregulation of K-ras in human HuCCT1 cells at 6 uM after 72 hrs by agarose gel electrophoresis. The class given is functional, cell-based. The conditions noted are these: HuCCT-1.
Data set [26] is described as follows: Downregulation of H-ras in human HuCCT1 cells at 6 uM after 72 hrs by agarose gel electrophoresis. The format is functional, cell-based. The conditions noted are these: HuCCT-1.
Data set [27] relates to MIA PaCa-2. The experiment in a line: Inhibition of Akt phosphorylation in human MIAPaCa2 cells assessed as effect on […] at 7 uM after 48 hrs by immunoblotting. The format is cell-based.
For data set [28], the system named is MIA PaCa-2. The experiment in a line: Inhibition of ERK phosphorylation in human MIAPaCa2 cells assessed as reduction in phospho-ERK levels at 7 uM after 48 hrs by immunoblotting. The class given is cell-based.
Data set [29] deals with HuCCT-1. Described as §2. The class given is functional.
Data set [30] concerns HuCCT1. The experiment in a line: Inhibition of Akt phosphorylation in human HuCCT1 cells assessed as reduction in phospho-Akt levels at 6 uM after 48 hrs by immunoblotting. The format is cell-based.
Data set [31] concerns HuCCT1. Put plainly: Inhibition of ERK phosphorylation in human HuCCT1 cells assessed as reduction in phospho-ERK levels at 6 uM after 48 hrs by immunoblotting. The format is cell-based.

On to `CCCCCCCCCC(=O)Nc1ccc(O)cc1`, for which the inhibition of growth at 10 µM in data set [1] was 0%. Further, the inhibition of growth at 4 µM in data set [2] is 23%. The “growth inhibition (GI)” value in data set [3] was “Dose-dependent effect”.
For `CCCCCCCCCCCC(=O)Nc1ccc(O)cc1`, in that order: 0%, 23% and “Dose-dependent effect”.
Turning to `CCCCCCCCCCCCNc1ccc(O)cc1`, the inhibition of growth at 10 µM in data set [1] came out at 50%; in data set [13] it was 84%. Besides, the inhibition result in [4] was “inactive”. The outcome in [5], in [9], in data set [10], in data set [11], in data set [24] and in data set [25] was Active. Besides, the inhibition of growth at 1 µM came out at 35% in data set [6] and 20% in [16]. The IC50 amounted to 10 µM in [7] and 2 µM in data set [21]. Besides, the values for the Drug uptake result in [8], in data set [12] and in [23] were “Active”, “Active” and “Not Active”, respectively. Also, the inhibition of growth at 4 µM worked out at 82% in data set [2] and 45% in [14]. In [15], the Ratio is 1.8. Besides, the inhibition was determined as 21% in data set [17], 20% in [20] and 50% in data set [22]. Also, the result in data set [18] and in data set [19] was inactive. In [3], the “growth inhibition (GI)” value was “Dose-dependent effect”.
For the molecule `CCCCCCCCCCNc1ccc(O)cc1`, in data set [1], the inhibition of growth at 10 µM was 55%. The inhibition of growth at 4 µM in data set [2] was found to be 82%. Also, in data set [3], the “growth inhibition (GI)” value was “Dose-dependent effect”.
With `CC1=C(/C=C/C(C)=C/C=C/C(C)=C/C(=O)Nc2ccc(O)cc2)C(C)(C)CCC1` [FENRETINIDE], the “growth inhibition (GI)” value in data set [1] and in data set [29] was “Active” each time. Moreover, the result in [5], in data set [26], in data set [10], in data set [24] and in [25] was Active. Also, the IC50 in [7] came out at 7 µM; in [21], 6 µM. For the same molecule, the inhibition in data set [27] came to 30%. In addition, the inhibition result in data set [28], in [30] and in data set [31] was “inactive” each time. In addition, the inhibition of growth at 4 µM worked out at 17% in [2] and 8% in data set [14]. Further, the outcome in data set [18] and in [19] was inactive. For the same molecule, in data set [3], the “growth inhibition (GI)” value was “Dose-dependent effect”.
For `CC1=C(/C=C/C(C)=C/C=C/C(C)=C/C(=O)O)C(C)(C)CCC1` [TRETINOIN], the inhibition of growth at 10 µM in data set [1] was found to be 18%; in data set [13], 28%. Besides, the inhibition of growth at 4 µM in [2] was 17%; in [14] it was 15%.
